# Source: paper PMC2810227, “3-O-Methylfunicone, a Selective Inhibitor of Mammalian Y-Family DNA Polymerases from an Australian Sea Salt Fungal Strain” (Marine Drugs, 2009)
# Key:
# [1] = target: T1, pol α from calf thymus (Bos taurus, UniProt A0AAA9TD94); assay: DNA polymerase assay, pol α; format: biochemical; settings: 100 μM
# T1 construct: Pol α was purified from calf thymus; from tissue; host or cells: calf thymus
# Source text: (§1) Pol α was purified from calf thymus by immuno-affinity column chromatography, as described by Tamai et al.. Recombinant rat pol β was purified from E. coli JMpβ5, as described by Date et al.. The human pol γ catalytic gene was cloned into pFastBac. Histidine-tagged enzyme was expressed using the BAC-TO-BAC HT Baculovirus Expression System according to the supplier’s manual (Life Technologies, MD, USA) and purified using ProBoundresin (Invitrogen Japan, Tokyo, Japan). Human pols δ and ɛ were purified by nuclear fractionation of human peripheral blood cancer cells (Molt-4) using the second subunit of pols δ and ɛ-conjugated affinity column chromatography, respectively. A truncated form of human pol η (residues 1–511) tagged with His6 at its C-terminal was expressed in E. coli cells and purified as described by Kusumoto et al.. A recombinant mouse pol ι tagged with His6 at its C-terminal was expressed and purified by Ni-NTA column chromatography as described elsewhere (Masutani et al., in preparation). […]
# (§2) The compounds were dissolved in distilled dimethyl sulfoxide (DMSO) at various concentrations and sonicated for 30 sec. […] Activity without the inhibitor was considered 100%, and the remaining activity at each concentration of the inhibitor was determined relative to this value. […]
# [2] = target: T2, human pol λ (Homo sapiens, UniProt Q9UGP5); assay: DNA polymerase assay, pol λ; format: biochemical; settings: 100 μM
# T2 construct: His; made in house
# T2 sequence (Q9UGP5 whole entry): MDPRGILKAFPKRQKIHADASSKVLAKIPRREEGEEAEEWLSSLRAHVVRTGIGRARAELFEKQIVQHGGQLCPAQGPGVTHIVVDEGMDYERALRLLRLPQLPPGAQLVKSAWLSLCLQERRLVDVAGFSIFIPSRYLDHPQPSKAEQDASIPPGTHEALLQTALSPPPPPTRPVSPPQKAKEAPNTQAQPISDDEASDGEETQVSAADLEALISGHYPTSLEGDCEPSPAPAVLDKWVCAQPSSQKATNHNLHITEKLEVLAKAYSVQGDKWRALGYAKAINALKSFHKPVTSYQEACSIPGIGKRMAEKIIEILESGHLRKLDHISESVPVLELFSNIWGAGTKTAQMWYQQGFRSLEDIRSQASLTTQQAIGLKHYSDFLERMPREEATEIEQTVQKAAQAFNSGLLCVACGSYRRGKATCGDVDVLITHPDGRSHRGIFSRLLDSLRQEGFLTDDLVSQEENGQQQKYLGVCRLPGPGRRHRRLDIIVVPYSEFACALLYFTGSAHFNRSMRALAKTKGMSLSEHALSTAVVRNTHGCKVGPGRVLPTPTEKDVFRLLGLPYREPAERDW
# Source text: as §1, §2
# [3] = target: T3, calf thymus TdT (Bos taurus, UniProt P06526); assay: DNA polymerase assay, TdT; format: biochemical; settings: 100 μM
# T3 construct: purchased Stratagene Cloning Systems (La Jolla, CA, USA)
# T3 sequence (P06526 whole entry): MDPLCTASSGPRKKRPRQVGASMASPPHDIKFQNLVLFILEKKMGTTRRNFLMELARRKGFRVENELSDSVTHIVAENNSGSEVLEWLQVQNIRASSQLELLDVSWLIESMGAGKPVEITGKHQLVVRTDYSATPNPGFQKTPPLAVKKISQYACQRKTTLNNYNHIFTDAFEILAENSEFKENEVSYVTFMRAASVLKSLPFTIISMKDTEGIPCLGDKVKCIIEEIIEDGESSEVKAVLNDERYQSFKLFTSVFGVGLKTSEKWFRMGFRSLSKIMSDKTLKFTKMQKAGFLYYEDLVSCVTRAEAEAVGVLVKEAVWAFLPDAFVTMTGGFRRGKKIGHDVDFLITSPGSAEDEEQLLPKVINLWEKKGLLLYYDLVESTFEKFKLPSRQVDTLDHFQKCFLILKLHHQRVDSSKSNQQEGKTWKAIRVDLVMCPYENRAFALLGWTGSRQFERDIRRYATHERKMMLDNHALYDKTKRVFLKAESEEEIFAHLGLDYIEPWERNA
# Source text: as §1, §2
# [4] = target: T4, fruit fly pol δ (Drosophila melanogaster, UniProt P54358); assay: DNA polymerase assay, insect pol δ; format: biochemical; settings: 100 μM
# T4 construct: purified from early embryos of Drosophila melanogaster; from tissue; host or cells: early embryos of Drosophila melanogaster
# [5] = target: T5, rice pol λ (Oryza sativa subsp. japonica, UniProt Q67VC8); assay: DNA polymerase assay, plant pol λ; format: biochemical, rice (Oryza sativa L. cv. Nipponbare); settings: 100 μM
# T5 construct: His; made in house
# Source text: as §1, §2
# [6] = target: T6, Taq pol (Thermus aquaticus, UniProt P19821); assay: DNA polymerase assay, Taq pol; format: biochemical; settings: 100 μM; 74 °C
# T6 construct: purchased Takara Bio (Tokyo, Japan)
# T6 sequence (P19821 whole entry): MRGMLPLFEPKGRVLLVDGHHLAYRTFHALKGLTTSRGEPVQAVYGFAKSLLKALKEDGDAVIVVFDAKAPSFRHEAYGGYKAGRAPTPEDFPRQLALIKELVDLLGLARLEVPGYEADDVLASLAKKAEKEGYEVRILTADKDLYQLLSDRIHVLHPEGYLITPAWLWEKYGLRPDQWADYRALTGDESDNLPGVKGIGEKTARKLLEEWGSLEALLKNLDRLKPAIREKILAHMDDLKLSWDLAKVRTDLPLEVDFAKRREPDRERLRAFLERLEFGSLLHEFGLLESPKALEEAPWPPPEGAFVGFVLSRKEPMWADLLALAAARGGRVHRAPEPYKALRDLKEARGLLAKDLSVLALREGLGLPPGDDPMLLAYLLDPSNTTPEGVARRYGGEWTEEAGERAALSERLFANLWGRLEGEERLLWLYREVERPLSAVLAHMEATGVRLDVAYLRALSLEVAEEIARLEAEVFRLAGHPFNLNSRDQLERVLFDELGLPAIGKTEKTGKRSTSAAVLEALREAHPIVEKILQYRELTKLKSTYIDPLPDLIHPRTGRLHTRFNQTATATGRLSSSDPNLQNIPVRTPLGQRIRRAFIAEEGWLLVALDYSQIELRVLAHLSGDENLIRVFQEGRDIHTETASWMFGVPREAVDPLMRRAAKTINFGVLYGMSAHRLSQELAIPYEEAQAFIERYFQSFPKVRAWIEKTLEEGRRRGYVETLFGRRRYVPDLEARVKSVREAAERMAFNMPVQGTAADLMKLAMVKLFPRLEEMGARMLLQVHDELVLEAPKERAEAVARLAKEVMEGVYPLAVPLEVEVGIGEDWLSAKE
# Source text: as §1, §2
# [7] = system: calf primase of pol α; assay: Primase assay; format: biochemical; settings: 100 μM
# Description: (§3) The activities of calf primase of pol α, human telomerase, T7 RNA polymerase, mouse IMP dehydrogenase, human DNA topoisomerases I and II, T4 polynucleotide kinase and bovine DNase I were measured in standard assays according to the manufacturer’s specifications, as described by Tamiya-Koizumi et al., Oda et al., Nakayama et al., Mizushina et al., Ishimaru et al., Soltis et al. and Lu et al., respectively.
# [8] = target: T7, T7 RNA polymerase (Escherichia phage T7, UniProt P00573); assay: T7 RNA polymerase assay; format: biochemical; settings: 100 μM
# T7 construct: purchased Takara Bio (Tokyo, Japan)
# T7 sequence (P00573 whole entry): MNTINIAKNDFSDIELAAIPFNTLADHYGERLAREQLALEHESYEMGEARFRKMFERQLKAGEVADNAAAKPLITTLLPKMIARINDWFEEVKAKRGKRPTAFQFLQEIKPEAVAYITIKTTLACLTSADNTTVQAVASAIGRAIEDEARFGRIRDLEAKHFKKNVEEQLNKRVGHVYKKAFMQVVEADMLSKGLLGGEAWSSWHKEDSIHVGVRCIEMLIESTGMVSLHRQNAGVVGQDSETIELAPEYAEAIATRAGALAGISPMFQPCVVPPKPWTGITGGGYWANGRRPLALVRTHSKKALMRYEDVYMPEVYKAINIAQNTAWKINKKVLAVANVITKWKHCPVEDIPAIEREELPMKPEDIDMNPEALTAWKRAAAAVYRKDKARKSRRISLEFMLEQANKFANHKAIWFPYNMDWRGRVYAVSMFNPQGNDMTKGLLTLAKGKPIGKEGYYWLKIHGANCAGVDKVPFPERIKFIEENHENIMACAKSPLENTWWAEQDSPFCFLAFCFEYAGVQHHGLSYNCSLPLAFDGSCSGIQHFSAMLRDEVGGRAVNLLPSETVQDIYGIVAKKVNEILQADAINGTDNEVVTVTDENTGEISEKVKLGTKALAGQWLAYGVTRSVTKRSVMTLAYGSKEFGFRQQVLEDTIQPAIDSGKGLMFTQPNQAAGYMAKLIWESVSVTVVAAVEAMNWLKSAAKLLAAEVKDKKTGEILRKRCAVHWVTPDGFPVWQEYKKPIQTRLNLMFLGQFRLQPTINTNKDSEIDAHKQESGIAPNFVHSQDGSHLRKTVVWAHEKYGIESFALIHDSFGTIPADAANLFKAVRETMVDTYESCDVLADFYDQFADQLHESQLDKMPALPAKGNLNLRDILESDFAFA
# Source text: as §1, with “al..” for “al.. A recombinant mouse pol ι tagged with His6 at its C-terminal was expressed and purified by Ni-NTA column chromatography as described elsewhere (Masutani et al., in preparation).”
# as §3
# [9] = target: mouse inosine 5′-monophosphate (IMP) dehydrogenase (type II) (Mus musculus, UniProt P24547); assay: IMP dehydrogenase assay; format: biochemical; settings: 100 μM
# Chain of mouse inosine 5′-monophosphate (IMP) dehydrogenase (type II) (P24547 whole entry): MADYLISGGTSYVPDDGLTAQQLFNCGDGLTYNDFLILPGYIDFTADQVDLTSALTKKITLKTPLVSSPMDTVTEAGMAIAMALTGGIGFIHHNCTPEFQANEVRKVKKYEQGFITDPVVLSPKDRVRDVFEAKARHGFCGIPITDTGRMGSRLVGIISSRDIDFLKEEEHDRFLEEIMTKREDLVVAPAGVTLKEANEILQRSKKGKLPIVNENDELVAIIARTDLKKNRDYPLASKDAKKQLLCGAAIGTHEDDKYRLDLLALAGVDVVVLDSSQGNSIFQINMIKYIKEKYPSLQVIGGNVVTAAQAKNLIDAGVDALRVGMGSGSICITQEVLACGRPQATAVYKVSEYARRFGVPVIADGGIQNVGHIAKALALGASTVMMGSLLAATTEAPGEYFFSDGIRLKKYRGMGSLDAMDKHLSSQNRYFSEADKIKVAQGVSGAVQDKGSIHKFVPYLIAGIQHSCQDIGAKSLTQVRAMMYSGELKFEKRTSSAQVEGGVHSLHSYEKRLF
# Description: as §3
# [10] = target: T8, human topoisomerase II (Homo sapiens, UniProt P11388); assay: DNA topoisomerase II assay; format: biochemical; settings: 100 μM
# T8 construct: Purified human placenta DNA topoisomerases I and II were purchased from TopoGen, Inc; purchased TopoGen, Inc. (Columbus, OH, USA); host or cells: human placenta (tissue-purified)
# Source text: as §1, with “al..” for “al.. A recombinant mouse pol ι tagged with His6 at its C-terminal was expressed and purified by Ni-NTA column chromatography as described elsewhere (Masutani et al., in preparation).”
# as §3
# T1 sequence (A0AAA9TD94 1-1441): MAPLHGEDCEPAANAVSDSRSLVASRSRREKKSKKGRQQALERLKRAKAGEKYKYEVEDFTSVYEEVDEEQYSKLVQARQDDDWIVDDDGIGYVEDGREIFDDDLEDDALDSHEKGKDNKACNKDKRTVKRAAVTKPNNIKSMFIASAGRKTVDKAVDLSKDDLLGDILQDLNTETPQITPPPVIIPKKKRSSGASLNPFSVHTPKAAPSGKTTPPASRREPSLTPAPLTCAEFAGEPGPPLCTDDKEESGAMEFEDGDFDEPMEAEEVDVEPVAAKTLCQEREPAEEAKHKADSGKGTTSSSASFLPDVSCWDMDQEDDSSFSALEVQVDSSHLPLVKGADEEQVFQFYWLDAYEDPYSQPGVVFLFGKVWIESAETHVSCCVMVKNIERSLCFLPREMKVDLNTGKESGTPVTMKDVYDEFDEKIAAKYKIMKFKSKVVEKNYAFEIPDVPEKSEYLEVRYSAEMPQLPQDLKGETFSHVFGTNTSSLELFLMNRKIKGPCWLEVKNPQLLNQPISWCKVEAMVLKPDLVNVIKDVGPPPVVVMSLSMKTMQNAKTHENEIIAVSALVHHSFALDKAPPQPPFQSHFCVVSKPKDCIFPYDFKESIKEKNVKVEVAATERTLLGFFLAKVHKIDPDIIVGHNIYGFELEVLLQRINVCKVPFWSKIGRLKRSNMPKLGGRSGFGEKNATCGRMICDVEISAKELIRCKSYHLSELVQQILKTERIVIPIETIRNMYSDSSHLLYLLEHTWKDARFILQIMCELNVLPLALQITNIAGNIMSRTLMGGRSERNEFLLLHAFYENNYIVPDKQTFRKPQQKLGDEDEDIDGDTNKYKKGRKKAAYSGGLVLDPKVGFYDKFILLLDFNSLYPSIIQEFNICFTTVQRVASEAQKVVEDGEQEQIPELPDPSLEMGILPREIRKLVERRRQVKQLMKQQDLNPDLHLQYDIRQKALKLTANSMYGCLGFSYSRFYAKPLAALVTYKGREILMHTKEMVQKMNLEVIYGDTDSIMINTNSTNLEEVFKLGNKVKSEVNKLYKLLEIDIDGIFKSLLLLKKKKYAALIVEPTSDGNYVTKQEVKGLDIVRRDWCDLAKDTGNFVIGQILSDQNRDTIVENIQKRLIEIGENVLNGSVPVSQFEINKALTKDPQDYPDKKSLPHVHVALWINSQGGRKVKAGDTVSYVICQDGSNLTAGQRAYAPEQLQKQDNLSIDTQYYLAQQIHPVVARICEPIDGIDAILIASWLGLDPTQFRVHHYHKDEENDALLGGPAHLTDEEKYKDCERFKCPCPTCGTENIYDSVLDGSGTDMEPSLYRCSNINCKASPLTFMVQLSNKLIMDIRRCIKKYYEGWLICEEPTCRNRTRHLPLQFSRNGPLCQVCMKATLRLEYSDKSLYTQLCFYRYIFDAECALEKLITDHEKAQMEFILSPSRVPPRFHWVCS
compound,measurement,setting,value
"C/C=C/c1occ(C(=O)c2c(OC)cc(OC)cc2C(=O)OC)c(=O)c1OC [compound 1, 3-O-methylfunicone]",effect on pol α activity,[1],hardly influenced
same,effect on pol λ activity,[2],hardly influenced
same,effect on TdT activity,[3],hardly influenced
same,effect on fruit fly pol δ activity,[4],hardly influenced
same,effect on rice pol λ activity,[5],no effect
same,effect on Taq pol activity,[6],no effect
same,effect on calf primase of pol α activity,[7],did not influence
same,effect on T7 RNA polymerase activity,[8],did not influence
same,effect on mouse IMP dehydrogenase (type II) activity,[9],did not influence
same,effect on human topoisomerase II activity,[10],did not influence
